{
  "source": "patent US8389573B2",
  "about": "“Glycyrrhetinic acid derivatives” (Wellington Laboratories Inc., priority 2006, dated 2013)",
  "key": {"HT-29 colon cancer cells": {"tested_on": "HT-29 colon cancer cells", "experiment": "Cell proliferation assay in HT-29 cells", "format": "cell-based", "conditions": "Homo sapiens, read-out: IC50, growth inhibition / cell proliferation", "protocol": "Human colon carcinoma cell lines SW480 and HT29 were provided by Dr. Stan Hamilton, M.D. Anderson Cancer Center (Houston, Tex.); SW-480 and HT-29 cells were maintained in Dulbecco's modified Eagle's medium nutrient mixture with Ham's F-12 (DMEM/Ham's F-12; Sigma-Aldrich, St. Louis, Mo.) with phenol red supplemented with 0.22% sodium bicarbonate, 0.011% sodium pyruvate, and 5% fetal bovine serum and 10 ml/l 100× antibiotic antimycotic solution (Sigma-Aldrich). Cells were maintained at 37° C. in the presence of 5% CO2.\nSW480 and HT 29 Cells (2×10^4) were plated in 12-well plates, and media were replaced the next day with DMEM/Ham's F-12 media containing 2.5% charcoal-stripped FBS and either vehicle (DMSO) or the indicated ligand and dissolved in DMSO. Fresh media and compounds were added every 48 h. Cells were counted at the indicated times using a Coulter Z1 cell counter. Each experiment was done in triplicate, and results are expressed as means±S.E. for each determination"}, "LNCaP cells": {"tested_on": "LNCaP cells", "experiment": "Western blot analysis and DNA fragmentation assay in LNCaP cells", "format": "cell-based, human", "protocol": "Cell Proliferation and DNA Fragmentation Assays: LNCaP prostate cancer cells (2×10^4 per well) were added to 12-well plates and allowed to attach for 24 hr. The medium was then changed to DMEM/Ham's F-12 media containing 2.5% charcoal-stripped FBS, and either vehicle (DMSO) or the indicated C-DIMs were added. Fresh medium and indicated compounds were added every 48 hr, and cells were then trypsinized and counted after 2, 4, and 6 days using a Coulter Z1 cell counter (Beckman Coulter, Fullerton, Calif.). Each experiment was done in triplicate, and results are expressed as means±S.E. for each set of three experiments. The DNA fragmentation assay was performed using a BioVision Apoptotic DNA ladder extraction kit (BioVision, Mountain View, Calif.) according to the manufacturer's protocol.\nWestern Blot Analysis: Cells were seeded in DMEM:Ham's F-12 media containing 2.5% charcoal-stripped FBS for 24 hr and then treated with either the vehicle (DMSO) or the indicated compounds. Cells were collected by scraping in 150 μl high salt lysis buffer (50 mM HEPES, 0.5 M NaCl, 1.5 mM MgCl2, 1 mM EGTA, 10% (v/v) glycerol, 1% (v/v) Triton-X-100 and 5 μL/ml of Protease Inhibitor Cocktail (Sigma). The lysates were incubated on ice for 1 hr with intermittent vortexing followed by centrifugation at 20,000 g for 10 min at 4° C. Before electrophoresis, samples were boiled for 3 min at 100° C.; the amount of protein was determined and 60 μg protein applied per lane. Samples were subjected to SDS-PAGE on 10% gel at 120 V for 3 to 4 hr. Proteins were transferred on to polyvinylidene difluoride membrane (PVDF; Bio-Rad, Hercules, Calif.) at 0.9 amp for 90 min at 4° C. in 1× transfer buffer (48 mM Tris-HCl, 39 mM glycine, and 0.025% SDS). The membranes were blocked for 30 min with 5% TBST-Blotto (10 mM Tris-HCl, 150 mM NaCl (pH 8.0), 0.05% Triton X-100 and 5% non-fat dry milk) and incubated in fresh 5% TBST-Blotto with primary antibody overnight with gentle shaking at 4° C. After washing with TBST for 10 min, the PVDF membrane was incubated with secondary antibody (1:5000) in 5% TBST-Blotto for 2-3 hr. The membrane was washed with TBST for 10 min and incubated with 10 ml of chemiluminescence substrate (PerkinElmer Life Sciences) for 1.0 min and exposed to ImageTeK-H medical imaging film (Eastman American X-ray Supply, Inc.)."}, "AR promoter": {"tested_on": "AR promoter", "experiment": "AR-luc promoter luciferase assay in LNCaP cells", "format": "cell-based", "text": "Transfections: The Gal4 reporter construct containing 5× Gal4 response elements (pGal4) was kindly provided by Dr. Marty Mayo (University of North Carolina, Chapel Hill, N.C.). The Gal4 DBD-PPARγ construct was a gift of Dr. Jennifer L. Oberfield (Glaxo Wellcome Research and Development, Research Triangle Park, N.C.). The PPRE-luc construct contains three tandem PPREs with a minimal TATA sequence linked to the luciferase gene in pGL2. The AR-luc construct containing the −5400 to +580 region of the androgen receptor promoter was provided by Dr. Donald J. Tindall (Mayo Clinic, Rochester, Minn.), and the PSA-luc construct containing the 5.8-kilobase region of the PSA promoter was provided by Dr. Hong-Wu Cheng (University of California, Davis, Calif.). LNCaP cells (1×10^5) were seeded in 12-well plates in DMEM/Ham's F-12 media supplemented with 2.5% charcoal-stripped FBS and grown overnight. Transient transfections were performed using Lipofectamine reagent (Invitrogen) according to the protocol provided by the manufacturer. Transfection studies were performed using 0.4 μg of Gal4Luc, 0.04 μg of β-galactosidase, 0.04 μg of Gal4 DBD-PPARγ, 0.4 μg of AR-luc, and 0.3 μg of PSA-luc. […] A Lumicount luminometer (PerkinElmer Life and Analytical Sciences) was used to quantify luciferase and β-galactosidase activities, and the luciferase activities were normalized to β-galactosidase activity."}},
  "data": [
    {"smiles": "COC(=O)[C@@]1(C)CC[C@]2(C)CC[C@]3(C)C(=CC(=O)[C@@H]4[C@@]5(C)C=C(C#N)C(=O)C(C)(C)[C@@H]5CC[C@]43C)[C@@H]2C1", "note": "[β-CDODA-Me, Methyl 2-cyano-3,11-dioxo-18β-oleana-1,12-dien-30-oate]", "values": [
      {"measurement": "IC50", "setting": "HT-29 colon cancer cells", "result": "0.2 to 0.5", "unit": "µM"},
      {"measurement": "concentrations that decrease AR and PSA expression", "setting": "LNCaP cells", "result": "1 to 2.5", "unit": "µM"},
      {"measurement": "degradation of cyclin D1 after cotreatment with MG132", "setting": "LNCaP cells", "result": "inhibited"},
      {"measurement": "downregulation of AR, PSA and FKBP51 proteins after cotreatment with T007 or MG132", "setting": "LNCaP cells", "result": "not affected"},
      {"measurement": "induced proapoptotic responses after cotreatment with T007", "setting": "LNCaP cells", "result": "not inhibited"},
      {"measurement": "JNK (p-JNK), PI3K (p-Akt) and MAPK (p-Erk) pathways", "setting": "LNCaP cells; 2.5 μM", "result": "induces activation"},
      {"measurement": "decreased expression of AR, PSA and FKBP51 with kinase inhibitors", "setting": "LNCaP cells; 2.5 μM", "result": "unaffected"},
      {"measurement": "induction of EGR-1, ATF-3 and NAG-1", "setting": "LNCaP cells; 2.5 μM", "result": "time-dependent induction"},
      {"measurement": "p-Erk activation", "setting": "LNCaP cells; 2.5 μM", "result": "remained elevated for 24 hr"},
      {"measurement": "time of maximal activation of JNK", "setting": "LNCaP cells; 2.5 μM", "result": 8, "unit": "h"},
      {"measurement": "time of maximal activation of PI3K", "setting": "LNCaP cells; 2.5 μM", "result": "8 to 12", "unit": "h"},
      {"measurement": "AR, PSA and FKBP51 expression", "setting": "LNCaP cells; 1-5 μM, presence or absence of 10 nM DHT", "result": "concentration-dependent decrease"},
      {"measurement": "NAG-1 and ATF-3 proapoptotic proteins", "setting": "LNCaP cells; 24 hr, 1-5 μM", "result": "induced"},
      {"measurement": "cyclin D1 proteins and Rb phosphorylation", "setting": "LNCaP cells; 24 hr, 1-5 μM", "result": "decrease"},
      {"measurement": "p27 and p21 proteins", "setting": "LNCaP cells; 24 hr, 1-5 μM", "result": "concentration-dependent induction"},
      {"measurement": "proapoptotic responses accompanying NAG-1/ATF-3 induction", "setting": "LNCaP cells; 24 hr, 1-5 μM", "result": "caspase-dependent PARP cleavage, DNA fragmentation, and decreased bcl2 expression"},
      {"measurement": "time course of PARP cleavage, AR and Sp1", "setting": "LNCaP cells; up to 24 hr", "result": "time-dependent induction of PARP cleavage and a decrease of both AR and Sp1"},
      {"measurement": "luciferase activity of AR-Luc construct", "setting": "AR promoter", "result": "decreased luciferase activity"}
    ]}
  ]
}
